Results on 1 compound are retold here after patent publication US20250205195A1, “BENZYLOXY-BENZYLAMINYL AMINO ACID DERIVATIVE FOR ADJUSTING TSLP/TSLPR SIGNAL TRANSMISSION” (AMTIXBIO CO., LTD., priority 2021, published 2025).

The experiment concerns TSLP. The experiment is described as follows: TNF-α-induced TSLP in HaCaT cells (ELISA). The format is cell-based, human. Conditions: HaCaT culture supernatant, TNF-α stimulated, 1 h pretreatment, equal amounts of compounds. How it is done: Human keratinocyte HaCaT cells (obtained from the Korean Cell Line Bank) were seeded in a 12-well plate at an initial density of 2×10^5 cells/well and cultured at 37° C. for 16 to 24 hours. FK506 (Sigma), compounds 27 and 29 of the present invention were then added to the HaCaT cell culture medium at final concentrations of 0, 1, 2, 4, and 8 µg/mL, and the cells were cultured at 37° C. for 1 hour. Next, to induce TSLP, the culture medium was treated with TNF-α (Sigma-Aldrich, USA) to a final concentration of 100 ng/mL, and the cells were cultured for an additional 24 hours at 37° C. The culture supernatant was collected, and the amount of induced TSLP from HaCaT cells was determined using an ELISA kit (R&D Systems, USA) according to the manufacturer's instructions. […] Under the same conditions, to compare the TSLP reduction efficiency R.R. (Reduction rate) of compound 27, positive control compound and compound 29, equal amounts of compounds 27, 29 and FK506 (Sigma-Aldrich, USA) were pretreated for 1 hour. The amount of TSLP released into the culture supernatant from HaCaT cells stimulated by TNF-α was quantitatively analyzed and presented in Table 3 and FIG. 3 (c).

Consider `CCC(NC)C(=O)NCc1ccc(OCc2ccc(Cl)cc2)cc1` (racemic) [Compound 29, (R)/(S)—N-(4-((4-chlorobenzyl)oxy)benzyl)-2-(methylamino)butanamide], for which the “R.R (Reduction rate) of TSLP” value stood at 58% and the TSLP came to 210 ng/mL.
